pIC50: −log10 of the molar value.
These molecules were tested against T1, C5aR (Homo sapiens, UniProt P21730) (assay: chemotaxis assay (C5aR mediated migration)). Conditions: migration of U937 or neutrophil cells toward C5a (0.03 nM), 1.5 hours at 37° C., read-out: Mig IC50.
T1 construct: U937 cells are a monocytic cell line which express C5aR; host or cells: U937 cells (cAMP treated) or isolated neutrophils
T1 sequence (P21730 1-350): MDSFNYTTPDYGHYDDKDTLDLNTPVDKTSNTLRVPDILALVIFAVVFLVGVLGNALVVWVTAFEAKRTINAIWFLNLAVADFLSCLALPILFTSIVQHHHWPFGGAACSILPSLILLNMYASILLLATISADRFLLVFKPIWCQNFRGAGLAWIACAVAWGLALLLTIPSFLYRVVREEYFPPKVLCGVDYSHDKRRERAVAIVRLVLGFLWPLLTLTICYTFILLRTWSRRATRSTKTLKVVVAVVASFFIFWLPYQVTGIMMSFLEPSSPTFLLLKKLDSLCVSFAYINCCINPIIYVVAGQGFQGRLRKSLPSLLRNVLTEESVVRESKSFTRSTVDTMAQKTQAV
Type: cell-based
Method: U937 cells are a monocytic cell line which express C5aR, and are available from ATCC (VA). […] Cells were grown under 5% CO2/95% air, 100% humidity at 37° C. and subcultured twice weekly at 1:6 (cells were cultured at a density range of 1×10^5 to 2×10^6 cells/mL) and harvested at 1×10^6 cells/mL. Prior to assay, cells are treated overnight with 0.5 mM of cyclic AMP (Sigma, Ohio) and washed once prior to use. cAMP treated U937 cells can be used in C5aR ligand binding and functional assays.
Optionally, human or murine neutrophils can be used to assay for compound activity. Neutrophils may be isolated from fresh human blood using density separation and centrifugation. Briefly, whole blood is incubated with equal parts 3% dextran and allowed to separate for 45 minutes. After separation, the top layer is layered on top of 15 mls of Ficoll (15 mls of Ficoll for every 30 mls of blood suspension) and centrifuged for 30 minutes at 400×g with no brake. The pellet at the bottom of the tube is then isolated and resuspended into PharmLyse RBC Lysis Buffer (BD Biosciences, San Jose, Calif.) after which the sample is again centrifuged for 10 minutes at 400×g with brake. The remaining cell pellet is resuspended as appropriate and consists of isolated neutrophils.
Optionally, compounds may be further assayed for their ability to inhibit chemotaxis in cells. Chemotaxis assays are performed using 5 μm pore polycarbonate, polyvinylpyrrolidone-coated filters in 96-well chemotaxis chambers (Neuroprobe; Gaithersburg, Md.) using chemotaxis buffer (Hank's balanced salt solution (HBSS) and 1% FBS). C5aR ligands (i.e., C5a, R&D Systems; Minneapolis, Minn.) are use to evaluate compound mediated inhibition of C5aR mediated migration. Other chemokines (i.e., SDF-1α; R&D Systems; Minneapolis, Minn.) are used as specificity controls. […] The chambers are incubated 1.5 hours at 37° C., and the number of cells in the lower chamber quantified either by direct cell counts in five high powered fields per well or by the CyQuant assay (Molecular Probes), a fluorescent dye method that measures nucleic acid content and microscopic observation.

Row | Structure (SMILES) | pIC50
1 | CCc1cccc(CC)c1-n1nc2c(c1-c1ncc(Cl)c3[nH]ccc13)CN(c1ncc(C(F)(F)F)cn1)CC2 [Example 1.008] | > 8.30
2 | Cc1cccc(OCC(C)C)c1-n1nc2c(c1-c1ccc3[nH]ccc3c1)CN(C(=O)OC(C)(C)C)CC2 [Example 1.018] | 7.30 to 8.30
3 | CCc1cccc(CC)c1-n1nc2c(c1-c1ccc(Cl)c3[nH]c(C)nc13)CN(c1ncc(C(F)(F)F)cn1)CC2 [Example 1.038] | 7.30 to 8.30
4 | Cc1cccc(OCC(C)C)c1-n1nc2c(c1-c1ccc3[nH]nc(N)c3c1)CN(c1ncc(C(F)(F)F)cc1F)CC2 [Example 1.225] | < 6.30
5 | Cc1cccc(C)c1-n1nc2c(c1-c1c(F)cc(Cl)c3[nH]ccc13)CN(c1ccc(C(C)C)cn1)CC2 [Example 1.106] | > 8.30
6 | CCc1cccc(CC)c1-n1nc2c(c1-c1ccc(F)c3[nH]ccc13)CN(c1ncc(C(F)(F)F)cn1)CC2 [Example 1.179] | > 8.30
7 | CCc1cccc(CC)c1-n1nc2c(c1-c1c(F)cc(F)c3[nH]ccc13)CN(c1ncc(C(F)(F)F)cc1F)CC2 [Example 1.182] | 7.30 to 8.30
8 | CCc1cccc(CC)c1-n1nc2c(c1-c1cc(F)c(OC)c3[nH]c(Cl)nc13)CN(c1ncc(C(F)(F)F)cn1)CC2 [Example 1.021] | 6.30 to 7.30
9 | Cc1cccc(OCC(C)C)c1-n1nc2c(c1-c1cccc3[nH]ccc13)CN(c1ncc(C(F)(F)F)cc1F)CC2 [Example 1.229] | 7.30 to 8.30
10 | Cc1cccc(C)c1-n1nc2c(c1-c1ccc3[nH]cc(C#N)c3c1)CN(c1ncc(Cl)cc1Cl)CC2 [Example 1.190] | < 6.30
11 | CCc1cccc(CC)c1-n1nc2c(c1-c1ccc3[nH]c(C)nc3c1)CN(c1ncc(C(F)(F)F)cn1)CC2 [Example 1.016] | < 6.30
12 | CCc1cccc(CC)c1-n1nc2c(c1-c1nccc3[nH]cc(Cl)c13)CN(c1ncc(C(F)(F)F)cn1)CC2 [Example 1.005] | > 8.30
13 | CCc1cccc(CC)c1-n1nc2c(c1-c1ccc(CO)c3[nH]ccc13)CN(c1ncc(C(F)(F)F)cc1F)CC2 [Example 1.174] | > 8.30
14 | Cc1cccc(OCC(C)C)c1-n1nc2c(c1-c1ccc3[nH]ccc3c1)CN(C(=O)NC(C)(C)C)CC2 [Example 1.186] | 6.30 to 7.30
15 | CCc1cccc(CC)c1-n1nc2c(c1-c1cc(F)c(OC)c3[nH]ccc13)CN(c1ncc(C3CC3)cn1)CC2 [Example 1.050] | > 8.30
16 | CCc1cccc(CC)c1-n1nc2c(c1-c1ccc(Cl)c3[nH]ccc13)CN(c1ccc(C(C)C)cn1)CC2 [Example 1.135] | > 8.30
17 | Cc1cccc(C)c1-n1nc2c(c1-c1cc(F)c(C)c3[nH]ccc13)CN(c1ncc(C(F)(F)F)cc1F)CC2 [Example 1.103] | 7.30 to 8.30
18 | CCc1cccc(CC)c1-n1nc2c(c1-c1c(F)cnc3[nH]ccc13)CN(c1ncc(C(F)(F)F)cn1)CC2 [Example 1.014] | 7.30 to 8.30
19 | Cc1cccc(C)c1-n1nc2c(c1-c1c(F)cc(Cl)c3[nH]ccc13)CN(c1ncc(C(C)C)cc1F)CC2 [Example 1.105] | 7.30 to 8.30
20 | CCc1cccc(CC)c1-n1nc2c(c1-c1ccc3[nH]ccc3c1)CN(Cc1c(Cl)cccc1C(F)(F)F)CC2 [Example 1.223] | > 8.30
21 | CCc1cccc(CC)c1-n1nc2c(c1-c1ccc(Cl)c3[nH]ccc13)CN(c1ncccn1)CC2 [Example 1.157] | > 8.30
22 | CCc1cccc(CC)c1-n1nc2c(c1-c1ccc(Cl)c3[nH]ccc13)CN(c1ncc(C)c(C(=O)O)n1)CC2 [Example 1.075] | 6.30 to 7.30
23 | CCc1cccc(CC)c1-n1nc2c(c1-c1ccc(F)c3[nH]ccc13)CN(c1cnccn1)CC2 [Example 1.173] | 7.30 to 8.30
24 | CCc1cccc(CC)c1-n1nc2c(c1-c1cc(F)c(Cl)c3[nH]ccc13)CN(c1ncc(C(F)(F)F)cc1F)CC2 [Example 1.085] | > 8.30
25 | CCc1cccc(CC)c1-n1nc2c(c1-c1c(F)cc(Cl)c3[nH]ccc13)CN(c1ncc(C3CC3)cc1F)CC2 [Example 1.062] | > 8.30
26 | CCc1cccc(CC)c1-n1nc2c(c1-c1c(F)cc(Cl)c3[nH]ccc13)CN(c1ncc(C3CC3)cn1)CC2 [Example 1.070] | > 8.30
27 | CCc1cccc(CC)c1-n1nc2c(c1-c1cc(F)c(OC)c3[nH]c(CO)nc13)CN(c1ncc(C(F)(F)F)cn1)CC2 [Example 1.028] | < 6.30

Row | Structure (SMILES) | pIC50
28 | CCc1cccc(CC)c1-n1nc2c(c1-c1cc(F)c(F)c3[nH]ccc13)CN(c1ccc(C(F)(F)F)cn1)CC2 [Example 1.116] | 7.30 to 8.30
29 | CCc1cccc(CC)c1-n1nc2c(c1-c1ccc(Cl)c3[nH]ccc13)CN(c1ncc(C3CC3)cc1Cl)CC2 [Example 1.073] | > 8.30
30 | CCc1cccc(CC)c1-n1nc2c(c1-c1c(F)cc(Cl)c3[nH]ccc13)CN(c1ncc(CN3CCCC3)cn1)CC2 [Example 1.055] | 7.30 to 8.30
31 | CCc1cccc(CC)c1-n1nc2c(c1-c1cc(F)c(OC)c3[nH]ccc13)CN(c1ncc(C(F)(F)F)cn1)CC2 [Example 1.059] | > 8.30
32 | CCc1cccc(CC)c1-n1nc2c(c1-c1ccc(Cl)c3[nH]ccc13)CN(c1ncc(CO)cn1)CC2 [Example 1.097] | 7.30 to 8.30
33 | CCc1cccc(CC)c1-n1nc2c(c1-c1cccc3[nH]ccc13)CN(c1ncc(C(F)(F)F)cn1)CC2 [Example 1.040] | 7.30 to 8.30
34 | Cc1cccc(C)c1-n1nc2c(c1-c1cc3cc[nH]c3cc1F)CN(c1ncc(Cl)cc1Cl)CC2 [Example 1.193] | 6.30 to 7.30
35 | Cc1cccc(OCC(C)C)c1-n1nc2c(c1-c1ccc3[nH]ccc3c1)CN(CC(C)(C)C)CC2 [Example 1.237] | > 8.30
36 | Cc1cccc(C)c1-n1nc2c(c1-c1ccc3[nH]ccc3c1)CN(c1ncc(Cl)cc1Cl)CC2 [Example 1.197] | 7.30 to 8.30
37 | CCc1cccc(CC)c1-n1nc2c(c1-c1c(F)cc(CO)c3[nH]ccc13)CN(c1ncc(C(C)C)cn1)CC2 [Example 1.098] | > 8.30
38 | CCc1cccc(CC)c1-n1nc2c(c1-c1cc(Cl)c(C)c3[nH]ccc13)CN(c1ncc(C(F)(F)F)cc1F)CC2 [Example 1.080] | > 8.30
39 | CCc1cccc(CC)c1-n1nc2c(c1-c1ccc(C)c3[nH]cc(Cl)c13)CN(c1ncc(C(F)(F)F)cc1F)CC2 [Example 1.170] | > 8.30
40 | COc1cnc(N2CCc3nn(-c4c(C)cccc4C)c(-c4c(F)cc(Cl)c5[nH]ccc45)c3C2)nc1 [Example 1.111] | 7.30 to 8.30
41 | CCc1cccc(CC)c1-n1nc2c(c1-c1cccc3[nH]cnc13)CN(c1ncc(C(F)(F)F)cn1)CC2 [Example 1.043] | 7.30 to 8.30
42 | CCc1cccc(CC)c1-n1nc2c(c1-c1ccc(Cl)c3[nH]cc(C)c13)CN(c1ncc(C(F)(F)F)cc1F)CC2 [Example 1.146] | > 8.30
43 | Cc1cccc(OCC(C)C)c1-n1nc2c(c1-c1ccc3[nH]nc(C)c3c1)CN(c1ncc(C(F)(F)F)cc1F)CC2 [Example 1.215] | < 6.30
44 | COc1c(F)cc(-c2c3c(nn2-c2c(C)cccc2F)CCN(c2ncc(C(F)(F)F)cn2)C3)c2cc[nH]c12 [Example 1.002] | 7.30 to 8.30
45 | CCc1cccc(CC)c1-n1nc2c(c1-c1ccc(Cl)c3[nH]ccc13)CN(c1cnccn1)CC2 [Example 1.057] | > 8.30
46 | CCc1cccc(CC)c1-n1nc2c(c1-c1ccc(F)c3[nH]ccc13)CN(c1ncc(C(F)(F)F)cc1F)CC2 [Example 1.188] | > 8.30
47 | Cc1cccc(C)c1-n1nc2c(c1-c1c(F)cc(C)c3[nH]ccc13)CN(c1ncc(C(C)C)cn1)CC2 [Example 1.096] | > 8.30
48 | CCc1cccc(CC)c1-n1nc2c(c1-c1ccc(Cl)c3[nH]ccc13)CN(c1ccc(OC(F)(F)F)cn1)CC2 [Example 1.086] | > 8.30
49 | CCc1cccc(CC)c1-n1nc2c(c1-c1cnc(C)c3[nH]ccc13)CN(c1ncc(C(F)(F)F)cn1)CC2 [Example 1.027] | 7.30 to 8.30
50 | Cc1cccc(C)c1-n1nc2c(c1-c1ccc(C)c3[nH]ccc13)CN(c1ncc(C(F)(F)F)cn1)CC2 [Example 1.107] | 7.30 to 8.30
51 | CCc1cccc(CC)c1-n1nc2c(c1-c1ccc(Cl)c3[nH]ncc13)CN(c1ncc(C(F)(F)F)cc1F)CC2 [Example 1.119] | 7.30 to 8.30
52 | Cc1cccc(C)c1-n1nc2c(c1-c1ccc(Cl)c3[nH]ccc13)CN(c1ncc(C(F)(F)F)cc1F)CC2 [Example 1.169] | 7.30 to 8.30
53 | CCc1cccc(CC)c1-n1nc2c(c1-c1cc(F)c(OC)c3[nH]ccc13)CN(c1ncc(OC(C)C)cn1)CC2 [Example 1.054] | > 8.30
